Here are results for 8 compounds from patent US8119660B2, “Small-molecule inhibitors of the androgen receptor” (The Regents of the University of California, priority 2007, dated 2012).

Residue numbers refer to the chain shown, from its start. Entries after “also recorded” stand apart in the source; their conditions may differ.

In test [1] the target is T1, endogenous AR with a mutation (T877A), LNCaP cells (Homo sapiens, UniProt P10275, T878A).
T1 construct: that each express endogenous AR; endogenous in cells; host or cells: LNCaP
T1 sequence (P10275 1-920 T878A): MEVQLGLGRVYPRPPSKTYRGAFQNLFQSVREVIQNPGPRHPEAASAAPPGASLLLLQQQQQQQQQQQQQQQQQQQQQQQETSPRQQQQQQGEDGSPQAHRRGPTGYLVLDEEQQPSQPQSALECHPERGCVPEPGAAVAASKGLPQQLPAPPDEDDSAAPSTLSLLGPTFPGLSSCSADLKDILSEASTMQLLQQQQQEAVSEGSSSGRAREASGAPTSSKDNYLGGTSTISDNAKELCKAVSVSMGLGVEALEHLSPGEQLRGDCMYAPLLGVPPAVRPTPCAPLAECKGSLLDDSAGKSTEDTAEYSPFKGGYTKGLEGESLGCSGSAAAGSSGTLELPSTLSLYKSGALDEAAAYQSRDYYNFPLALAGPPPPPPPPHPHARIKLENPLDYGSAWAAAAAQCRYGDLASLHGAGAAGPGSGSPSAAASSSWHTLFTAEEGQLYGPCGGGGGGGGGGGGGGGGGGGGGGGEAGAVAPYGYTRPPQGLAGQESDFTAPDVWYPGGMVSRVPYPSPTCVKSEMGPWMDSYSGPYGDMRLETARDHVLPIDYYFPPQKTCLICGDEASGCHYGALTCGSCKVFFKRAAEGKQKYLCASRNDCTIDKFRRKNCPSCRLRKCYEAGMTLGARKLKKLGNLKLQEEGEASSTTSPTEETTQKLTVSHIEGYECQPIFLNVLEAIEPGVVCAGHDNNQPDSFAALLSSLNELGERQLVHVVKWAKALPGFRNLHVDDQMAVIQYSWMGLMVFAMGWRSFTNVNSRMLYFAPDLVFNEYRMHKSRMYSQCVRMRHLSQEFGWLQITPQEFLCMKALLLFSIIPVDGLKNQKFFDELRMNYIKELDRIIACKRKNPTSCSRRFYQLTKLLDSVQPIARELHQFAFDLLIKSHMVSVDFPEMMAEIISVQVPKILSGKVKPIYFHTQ
In words: PSA-luciferase reporter assay in LNCaP cells with DHT. As to conditions: for IC50: LNCaP cells, 3 nM DHT. The test is classed as cell-based. As to the method: (§1) Cells were transfected with two reporter plasmids, a PSA-luciferase construct (androgen responsive), and an SV40-renilla luciferase construct as an internal control. The following day, the cells were split and drugs added in the presence of 3 nM DHT. Luciferase production was measured the following day (Dual luciferase assay kit, Promega).
(§2) Synergism can be defined as a combination index of less than one, using the non-exclusive assumption described by Chou et al. (Chou, T. C. and P. Talalay, Quantitative analysis of dose-effect relationships: the combined effects of multiple drugs or enzyme inhibitors. Adv Enzyme Regul, 1984. 22: p. 27-55).
(In general: Reporter assays use an easily measured gene product as a stand-in for the process of interest.)

The target of test [2] is T2, endogenous wild-type AR, LAPC4 cells (Homo sapiens, UniProt P10275).
T2 construct: that each express endogenous AR; endogenous in cells; host or cells: LAPC4
T2 sequence (P10275 1-920): T1 sequence (P10275 1-920 T878A) with A878T
In words: PSA-luciferase reporter assay in LAPC4 cells with DHT. The class given is cell-based. As to conditions: 3 nM DHT. Here is the method:
as §1, §2

Test [3] has as its system endogenous AR-regulated gene expression, LNCaP cells. In words: qRT-PCR of androgen-responsive genes in LNCaP cells. The test is classed as cell-based, human. The following applies: No DHT = 1, 3 nM DHT alone or with 1 uM BIC, 100 nM PP or 100 nM HH. Here is the method:
(§3) LAPC4 and LNCaP cells were grown in the presence or absence of 3 nM DHT in charcoal-stripped media, with or without the inhibitors. RNA was harvested using an RNAeasy kit (Qiagen) and reverse transcribed (MMLV-RT, Invitrogen). Real-time PCR was carried out on a 7300 Real Time PCR System (Applied Biosystems) using SYBR green as the detecting dye and Rox as the reference dye. The androgen responsive genes kalikrein 3, or PSA (KLK3) [Cleutjens, K. B., et al., Two androgen response regions cooperate in steroid hormone regulated activity of the prostate-specific antigen promoter. J Biol Chem, 1996. 271(11): p. 6379-88; Nelson, P. S., et al., The program of androgen-responsive genes in neoplastic prostate epithelium. Proc Natl Acad Sci USA, 2002. 99(18): p. 11890-5), metalloproteinase 16 (MMP16) (Nelson, P. S., et al., The program of androgen-responsive genes in neoplastic prostate epithelium. Proc Natl Acad Sci USA, 2002. 99(18): p. 11890-5), transmembrane protease serine 2 (TMPRSS2) (Nelson, P. S., et al., The program of androgen-responsive genes in neoplastic prostate epithelium. Proc Natl Acad Sci USA, 2002. 99(18): p. 11890-5; […] Vaarala, M. H., et al., Expression of transmembrane serine protease TMPRSS2 in mouse and human tissues. J Pathol, 2001. 193(1): p. 134-40), FK506-binding immunophilin 51 (FKBP51) (Nelson, P. S., et al., The program of androgen-responsive genes in neoplastic prostate epithelium. Proc Natl Acad Sci USA, 2002. 99(18): p. 11890-5; Amler, L. C., et al., Dysregulated expression of androgen-responsive and nonresponsive genes in the androgen-independent prostate cancer xenograft model CWR22-R1. Cancer Res, 2000. 60(21): p. 6134-41; Velasco, A. M., et al., Identification and validation of novel androgen-regulated genes in prostate cancer. Endocrinology, 2004. 145(8): p. 3913-24; Magee, J. A., et al., Direct, androgen receptor-mediated regulation of the FKBP5 gene via a distal enhancer element. Endocrinology, 2006. 147(1): p. 590-8), G-protein coupled receptor RDC1 homolog, or chemokine orphan receptor 1 (RDC-1) (Nelson, P. S., et al., The program of androgen-responsive genes in neoplastic prostate epithelium. Proc Natl Acad Sci USA, 2002. 99(18): p. 11890-5), NK homeobox family member 3 (Nk×3.1) (Nelson, P. S., et al., The program of androgen-responsive genes in neoplastic prostate epithelium. Proc Natl Acad Sci USA, 2002. 99(18): p. 11890-5; Bieberich, C. J., et al., Prostate-specific and androgen-dependent expression of a novel homeobox gene. J Biol Chem, 1996. 271(50): p. 31779-82; […]) were all normalized to the transcription of the housekeeping ribosomal gene (RPL19). All samples were done in triplicate and separately normalized.
On the technique in general: Quantitative PCR measures a nucleic acid by following its amplification.

For test [4], the system named is endogenous AR-regulated gene expression, LAPC4 cells. In words: qRT-PCR of androgen-responsive genes in LAPC4 cells. The test is classed as cell-based, human. The following applies: No DHT = 1, 3 nM DHT alone or with 1 uM BIC, 100 nM PP or 100 nM HH. As to the method: as §3
The test system of another test is prostate glands of mice. Nature of the test: Prostate weight in treated male mice. The class given is in vivo. As to conditions: 5 times per week for four weeks, BiC 100 mg/kg PO, PP 1 mg/kg IP, or the combination. Here is the method:
FIG. 7. […] As a positive control, nine mice were treated with castration for four weeks. Prostate glands were harvested and wet weights determined. […] Error bars represent the standard error of the mean (S.E.M.).
Animals were treated 5 times per week for four weeks. At the end of the study period, animals were sacrificed and prostate tissue weighed. After weighing, the tissue was divided in half for pathological and genetic studies. […] (FIG. 7).

For the compound `O=c1ccc2cc(O[C@@H]3O[C@H](CO)[C@@H](O)[C@H](O)[C@H]3O)c(O)cc2o1` [Esculin], the IC50 (in general, the point on the concentration scale where inhibition reaches its midpoint) in test [1] stood at 62200 nM; in test [2] it was 831 nM.

Consider `C[C@]12CCC(=O)C[C@@H]1CC[C@@H]1[C@@H]2CC[C@]2(C)[C@@H](O)CC[C@@H]12` [DHT, dihydrotestosterone], for which, in test [3], the “FKBP51 transcription (normalized to RPL19)” value is given as 2.15; the “KLK3 transcription (normalized to RPL19)” value turned out to be 1.89; the “MMP16 transcription (normalized to RPL19), androgen-repressed gene” value is 0.61; the “Nkx3.1 transcription (normalized to RPL19)” value stood at 2.00. In test [3], the “RDC1 transcription (normalized to RPL19), androgen-repressed gene” value worked out at 0.66 and the “TMPRSS2 transcription (normalized to RPL19)” value amounted to 3.70. Moreover, in test [4], the “FKBP51 transcription (normalized to RPL19)” value is reported as 21.4; the “KLK3 transcription (normalized to RPL19)” value is listed as 1.97; the “MMP16 transcription (normalized to RPL19), androgen-repressed gene” value is 0.71; the “Nkx3.1 transcription (normalized to RPL19)” value is listed as 1.08. Also, in test [4], the “RDC1 transcription (normalized to RPL19), androgen-repressed gene” value was found to be 0.63 and the “TMPRSS2 transcription (normalized to RPL19)” value was determined as 1.13.

For `CC(C)(O)C(=O)Nc1ccc([N+](=O)[O-])c(C(F)(F)F)c1` [OH-F, hydroxy-flutamide, reference compound], the “Mode of antagonism: effect on DHT dose-response of PSA-luciferase” value in test [1] (LNCaP, DHT titrated, moderate dose of each inhibitor) was “DHT overcame the inhibitory effect; also recorded: consistent with a competitive antagonist”.

Regarding `COc1ccc2c(c1)[nH]c1c(C)nccc12` [Harmine], the IC50 was 1560 nM in test [1] and 80 nM in test [2].

As to `CC(O)(CS(=O)(=O)c1ccc(F)cc1)C(=O)Nc1ccc(C#N)c(C(F)(F)F)c1` (stereo not shown) [BiC, bicalutamide], the “Reduction of prostate weight” value in the test with prostate glands of mice was determined as 35%.

As to Harman, the IC50 in test [1] is 380 nM.

As to `COc1cc2ccc(=O)oc2cc1O` [Scopoletin], the IC50 in test [1] came to 604000 nM; in test [2], 1380 nM.

For `COc1ccc2c3c([nH]c2c1)C(C)=NCC3` [Harmaline], the IC50 in test [1] was determined as 1190 nM.
